Assays:
Type in all cases: cell-based, human
MDSC cultures [1] = test: LPS-induced macrophage differentiation of MDSC cultures; settings: 1 μg/ml LPS; 12-14-day-old M-CSF-treated cultures with 80-90% MDSCs
Excerpt: This transformation was verified by characterization of morphology, lipid staining, increased HLA-DR, HLA-DQ, IL-10 and TNF-α immunostaining (FIG. 3), and cytotoxicity (Table 1).

MDSC cultures [2] = test: Pancreatic islet β-cell-like  differentiation of MDSC cultures, immunostaining for β-cell markers; settings: high glucose, absence of serum
Method: Cells. MDSCs cultured in 8-well Lab-Tek chamber slides (Nunc, Naperville, Ill.)) were treated for 3-5 days with 1 mg/ml LPS (Sigma) or […] CD40Ab (R&D System, Minneapolis, Minn.)) in the presence of low (5 mM) or high (25 mM) glucose (Sigma). Human pancreatic islets were digested as described in Ricordi, C., et al., Diabetes 38 Suppl 1, 140-142 (1989) and purified on COBE 2991 (Mediatech, Herndon, Va.) using a continuous Ficoll gradient. Immunostaining. Tissue slides (Biochain, Hayward, Calif.) were immunostained after deparaffinization with AutoDewaxer (Phoenix Biotechnologies, Huntsville, Ala.). The secondary antibodies were peroxidase-, FITC-, or Texas Red® dye-conjugated affiniPure anti-mouse, donkey, goat or Guinea pig antibodies (Jackson ImmunoResearch Laboratories, West Grove, Pa.). […] Isotype-matched antibodies served as controls. Human macrophages served as positive controls. […] Immunostaining for the different antigens and insulin immuno-quantification was done as previously described (Zhao, Y., et al., Proc. Natl. Acad. Sci. USA, 100: 2426-2431 (2003). Non-specific esterase staining was performed using a-Naphthyl Acetate Esterase kit (Sigma).

MDSC cultures [3] = test: Transmission electron microscopy of treated MDSC cultures; settings: treated MDSC cultures in high glucose
Method: Transmission electron microscopy. Untreated or treated MDSC cultures were incubated in high glucose in 8-well Permanox® Slides (Nunc, Naperville, Ill.). Freshly human isolated islets were fixed for 2 h with 2% glutaraldehyde in cacodylate buffer at room temperature and the further sample preparation was done as described in Zhu, X., et al., Proc. Natl. Acad. Sci. (USA), 99:10299-10304 (2002). Fifty randomly selected cells were photographed using the Philips CM-120 transmission electron microscope.

insulin gene = test: Nested RT-PCR for insulin in MDSC cultures; settings: treated MDSC cultures; markedly increased in high glucose
Method: Nested RT-PCR. Nested RT-PCR was performed using the QIAGEN® OneStep RT-PCR kit (Qiagen, Valencia, Calif.), with the following: insulin forward-[…] (SEQ ID NO: 1) (PCR product size 324 bp), insulin forward nested-[…] (SEQ ID NO: 2) (PCR product size 266 bp), insulin reverse-[…] (SEQ ID NO: 3), glyceraldehyde phosphate dehydrogenase (GAPDH) forward-[…] (SEQ ID NO: 4) (PCR product size 541 bp), GAPDH forward nested-[…] (SEQ ID NO: 5) (PCR poduct size 282 bp), GAPDH reverse-[…] (SEQ ID NO: 6). Both PCR rounds were done using 40 cycles consisting of 30 seconds at 94° C., 1 minute at 58° C., and 1 minute at 72° C. First round PCR products were diluted 1:100 prior to the nested PCR. Final PCR products were electrophoresed through 1.7% agarose with ethidiumbromide and visualized by UV.

MDSC cultures [4] = test: Insulin release from MDSC cultures (insulin ELISA); settings: MDSC cultures treated 4-5 days
Method: Insulin release. MDSC cultures incubated in 24-well tissue culture plates (Costar, Cambridge, Mass.) at 70-80% confluence were treated for 4-5 days with LPS or CD40Ab. Insulin secretion was assessed as previously described in Schuit, F., et al., J. Biol. Chem. 272:18572-18579 (1997), using an insulin ELISA kit (Linco Research, MO). When required, the untreated or treated cultures were also pre-incubated for 30 min with […] diazoxide, 10 mM tolbudamide, or […] IBMX.

Q: lipopolysaccharide [LPS] was tested. Which “macrophage differentiation of MDSCs” value (MDSC cultures [1]) did it give?
A: Its value is “transformed the MDSCs into standard macrophages”.

Q: What about the “insulin level by quantitative immunostaining” value (MDSC cultures [2]) of the same substance?
A: The value was “about half the level of islet beta-cells”.

Q: And the “granules seen by transmission electron microscopy” value (MDSC cultures [3])?
A: The value was “many halo granules of different sizes”.

Q: And the insulin gene expression (insulin gene)?
A: The insulin gene expression was “express the insulin gene”.

Q: What about the “insulin release by ELISA” value (MDSC cultures [4]) of the same substance?
A: Its value is “glucose-dependent insulin release”.

Source: patent US20050260158A1, “Human stem cell materials and methods” (priority 2003, published 2005)
